Laboratory results reported in ChEMBL document CHEMBL2203036, “Discovery of 1-[2-(2,4-dimethylphenylsulfanyl)phenyl]piperazine (Lu AA21004): a novel multimodal compound for the treatment of major depressive disorder” (J Med Chem, 2011).

Molecular target: 5-hydroxytryptamine receptor 2C (Homo sapiens) (UniProt P28335)
Experiment: Binding affinity to human 5HT2C receptor

Chain of 5-hydroxytryptamine receptor 2C (Homo sapiens) (P28335 whole entry, looked up): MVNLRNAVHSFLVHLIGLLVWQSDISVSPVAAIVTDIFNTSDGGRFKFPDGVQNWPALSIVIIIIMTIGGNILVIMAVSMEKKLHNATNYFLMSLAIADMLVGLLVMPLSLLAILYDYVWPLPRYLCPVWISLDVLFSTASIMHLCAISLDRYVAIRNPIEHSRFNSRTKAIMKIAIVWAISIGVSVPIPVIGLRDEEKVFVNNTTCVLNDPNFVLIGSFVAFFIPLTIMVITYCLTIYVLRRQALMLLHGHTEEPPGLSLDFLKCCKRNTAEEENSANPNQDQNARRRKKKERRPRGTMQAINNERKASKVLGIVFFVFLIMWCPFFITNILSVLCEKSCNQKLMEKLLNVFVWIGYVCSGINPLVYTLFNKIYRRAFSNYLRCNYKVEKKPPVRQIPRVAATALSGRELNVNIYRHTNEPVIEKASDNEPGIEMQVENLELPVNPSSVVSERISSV

**Q.** How did the Ki turn out when `Cc1ccc(Sc2ccccc2N2CCNCC2)c(C)c1.Cl` was run?
**A.** 180 nM
